Experimental data from patent publication US12441691B2 (Cytokinetics, Inc., priority 2020, dated 2025).

tested on: rabbit skeletal myofibrils (fast skeletal myofibrils); test: Activation of fast skeletal myofibrils (PUMA assay, AC1.4); assay type: biochemical; settings: calcium at pCa25, AC1.4 = concentration at which the compound increased the enzymatic activity
Summary of the method: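 In 12 mM PIPES pH 6.8 with 2 mM MgCl2 and 1 mM DTT, Triton-washed rabbit skeletal myofibrils were run at the pCa25 calcium level. Myosin-made ADP was recycled through a PK/LDH coupled system; NADH loss read at 340 nm.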

First: CC[C@H](C)[C@H]1C(=O)Nc2ccccc2CN1/C(N)=N/C(C)=O [Compound 113, N-((E)-amino((S)-3-((S)-sec-butyl)-2-oxo-1,2,3,5-tetrahydro-2H-benzo[e][1,4]diazepin-4-yl)methylene)acetamide]
Second: CC[C@H](C)[C@H]1C(=O)Nc2ccccc2CN1C(=O)N(CCO)C(C)C [Compound 135, (S)-3-((S)-sec-butyl)-N-(2-hydroxyethyl)-N-isopropyl-2-oxo-1,2,3,5-tetrahydro-4H-benzo[e][1,4]diazepine-4-carboxamide]
The AC1.4 of the first is 25-fold lower: 0.15 µM for the first, 3.72 µM for the second.

Going from `CC[C@H](C)[C@H]1C(=O)Nc2ccccc2CN1c1ncccn1` [Compound 114, (S)-3-((S)-sec-butyl)-4-(pyrimidin-2-yl)-1,3,4,5-tetrahydro-2H-benzo[e][1,4]diazepin-2-one] to `CC[C@H](C)[C@H]1C(=O)Nc2ccccc2CN1c1nc(N)n(C)n1` [Compound 118, (S)-4-(5-amino-1-methyl-1H-1,2,4-triazol-3-yl)-3-((S)-sec-butyl)-1,3,4,5-tetrahydro-2H-benzo[e][1,4]diazepin-2-one], the AC1.4 rises from 0.05 µM to 0.08 µM (1.6-fold).

`CC[C@H](C)[C@H]1C(=O)Nc2ccccc2CN1c1cc(=O)n(C)cn1` [Compound 115, (S)-3-((S)-sec-butyl)-4-(1-methyl-6-oxo-1,6-dihydropyrimidin-4-yl)-1,3,4,5-tetrahydro-2H-benzo[e][1,4]diazepin-2-one] and `CC[C@H](C)[C@H]1C(=O)Nc2ccccc2CN1c1nc(N)nn1C` [Compound 117, (S)-4-(3-amino-1-methyl-1H-1,2,4-triazol-5-yl)-3-((S)-sec-butyl)-1,3,4,5-tetrahydro-2H-benzo[e][1,4]diazepin-2-one] are within 1.5-fold of each other in AC1.4: 0.08 µM for the first, 0.07 µM for the second.

Going from `CC[C@H](C)[C@H]1C(=O)Nc2ccccc2CN1c1nc(OC)cc(OC)n1` [Compound 116, (S)-3-((S)-sec-butyl)-4-(4,6-dimethoxypyrimidin-2-yl)-1,3,4,5-tetrahydro-2H-benzo[e][1,4]diazepin-2-one] to `CC[C@H](C)[C@H]1C(=O)Nc2ccccc2CN1c1c(N(C)C)c(=O)c1=O` [Compound 131, 3-((S)-3-((S)-sec-butyl)-2-oxo-1,2,3,5-tetrahydro-4H-benzo[e][1,4]diazepin-4-yl)-4-(dimethylamino)cyclobut-3-ene-1,2-dione], the AC1.4 falls from 0.05 µM to 0.02 µM (2.5-fold).

Compared with `CC[C@H](C)[C@H]1C(=O)Nc2ccccc2CN1S(=O)(=O)CCOC` [Compound 119, (S)-3-((S)-sec-butyl)-4-((2-methoxyethyl)sulfonyl)-1,3,4,5-tetrahydro-2H-benzo[e][1,4]diazepin-2-one], `CC[C@H](C)[C@H]1C(=O)Nc2ccccc2CN1S(=O)(=O)NC` [Compound 120, (S)-3-((S)-sec-butyl)-N-methyl-2-oxo-1,2,3,5-tetrahydro-4H-benzo[e][1,4]diazepine-4-sulfonamide] is 20-fold lower in AC1.4: 2.44 µM for the first, 0.12 µM for the second.

Compared with `NC(=O)N1Cc2ccccc2NC(=O)[C@@H]1C1CCC1` [Compound 121, (S)-3-cyclobutyl-2-oxo-1,2,3,5-tetrahydro-4H-benzo[e][1,4]diazepine-4-carboxamide], `NC(=O)N1Cc2ccccc2NC(=O)[C@@H]1C1CCCC1` [Compound 123, (S)-3-cyclopentyl-2-oxo-1,2,3,5-tetrahydro-4H-benzo[e][1,4]diazepine-4-carboxamide] is 14-fold lower in AC1.4: 4.80 µM for the first, 0.35 µM for the second.

Going from `Cn1cc(C(=O)N2Cc3ccccc3NC(=O)[C@@H]2C2CCC2)cn1` [Compound 122, (S)-3-cyclobutyl-4-(1-methyl-1H-pyrazole-4-carbonyl)-1,3,4,5-tetrahydro-2H-benzo[e][1,4]diazepin-2-one] to `O=C1Nc2ccccc2CN(C(=O)c2ccco2)[C@H]1C1CCCCC1` [Compound 128, (S)-3-cyclohexyl-4-(furan-2-carbonyl)-1,3,4,5-tetrahydro-2H-benzo[e][1,4]diazepin-2-one], the AC1.4 falls from 3.16 µM to 0.06 µM (53-fold).

`O=C1Nc2ccccc2CN(C(=O)CCO)[C@H]1C1CCCCC1` [Compound 124, (S)-3-cyclohexyl-4-(3-hydroxypropanoyl)-1,3,4,5-tetrahydro-2H-benzo[e][1,4]diazepin-2-one] and `NC(=O)c1ccc(C(=O)N2Cc3ccccc3NC(=O)[C@@H]2C2CCCCC2)cc1` [Compound 125, (S)-4-(3-cyclohexyl-2-oxo-2,3,4,5-tetrahydro-1H-benzo[e][1,4]diazepine-4-carbonyl)benzamide] are within 1.5-fold of each other in AC1.4: 0.38 µM for the first, 0.29 µM for the second.

Compared with `CCC(CC)[C@H]1C(=O)Nc2ccccc2CN1C(N)=O` [Compound 129, (S)-2-oxo-3-(pentan-3-yl)-1,2,3,5-tetrahydro-4H-benzo[e][1,4]diazepine-4-carboxamide], `CC[C@H](C)[C@H]1C(=O)Nc2ccccc2CN1C(=O)N(C)CCN(C)C` [Compound 133, (S)-3-((S)-sec-butyl)-N-(2-(dimethylamino)ethyl)-N-methyl-2-oxo-1,2,3,5-tetrahydro-4H-benzo[e][1,4]diazepine-4-carboxamide] is 4.8-fold higher in AC1.4: 0.10 µM for the first, 0.48 µM for the second.

`CC[C@H](C)[C@H]1C(=O)Nc2ccccc2CN1c1c(NC)c(=O)c1=O` [Compound 130, 3-((S)-3-((S)-sec-butyl)-2-oxo-1,2,3,5-tetrahydro-4H-benzo[e][1,4]diazepin-4-yl)-4-(methylamino)cyclobut-3-ene-1,2-dione] and `CC[C@H](C)[C@H]1C(=O)Nc2ccccc2CN1c1c(NCCO)c(=O)c1=O` [Compound 132, 3-((S)-3-((S)-sec-butyl)-2-oxo-1,2,3,5-tetrahydro-4H-benzo[e][1,4]diazepin-4-yl)-4-((2-hydroxyethyl)amino)cyclobut-3-ene-1,2-dione] are within 1.5-fold of each other in AC1.4: 0.06 µM for the first, 0.07 µM for the second.

Going from `CC[C@H](C)[C@H]1C(=O)Nc2ccccc2CN1C(=O)N1CCC(O)CC1` [Compound 134, (S)-3-((S)-sec-butyl)-4-(4-hydroxypiperidine-1-carbonyl)-1,3,4,5-tetrahydro-2H-benzo[e][1,4]diazepin-2-one] to `CC[C@H](C)[C@H]1C(=O)Nc2ccccc2CN1C(=O)N1C[C@@H](O)[C@@H](O)C1` [Compound 137, (S)-3-((S)-sec-butyl)-4-((3R,4S)-3,4-dihydroxypyrrolidine-1-carbonyl)-1,3,4,5-tetrahydro-2H-benzo[e][1,4]diazepin-2-one], the AC1.4 rises from 0.71 µM to 3.35 µM (4.7-fold).

Compared with `CC[C@H](C)[C@H]1C(=O)Nc2ccccc2CN1C(=O)NC1CN(C)C1` [Compound 138, (S)-3-((S)-sec-butyl)-N-(1-methylazetidin-3-yl)-2-oxo-1,2,3,5-tetrahydro-4H-benzo[e][1,4]diazepine-4-carboxamide], `CC[C@H](C)[C@H]1C(=O)Nc2ccccc2CN1C(=O)NC1CN(C2COC2)C1` [Compound 139, (S)-3-((S)-sec-butyl)-N-(1-(oxetan-3-yl)azetidin-3-yl)-2-oxo-1,2,3,5-tetrahydro-4H-benzo[e][1,4]diazepine-4-carboxamide] is 1.8-fold higher in AC1.4: 0.52 µM for the first, 0.93 µM for the second.

With `CC[C@H](C)[C@H]1C(=O)Nc2ccccc2CN1C(=O)N1C[C@@H](O)[C@H](O)C1` [Compound 140, (S)-3-((S)-sec-butyl)-4-((3R,4R)-3,4-dihydroxypyrrolidine-1-carbonyl)-1,3,4,5-tetrahydro-2H-benzo[e][1,4]diazepin-2-one] the AC1.4 was 4.74 µM.
